Assay [1] deals with CXCR3 (Homo sapiens (Human), UniProt P49682). Nature of the assay: Receptor internalization assay. The class given is cell-based. The conditions noted are these: human whole blood; final CXCL10 concentration 9 nM; 30 min 37° C.; CXCR3 cell surface expression on CD3 positive cells, flow cytometer; read-out: Internalization IC50. The gist of the method: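 In human whole blood, compounds were incubated with CXCL10 (9 nM final) for 30 min at 37 °C to drive receptor internalization, then stained with anti-CXCR3/CD3 antibodies and lysed of red cells. Flow cytometry measured mean surface CXCR3 fluorescence on CD3+ cells, and IC50 came from single-site dose-response fits.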
CXCR3, sequence (P49682 whole entry): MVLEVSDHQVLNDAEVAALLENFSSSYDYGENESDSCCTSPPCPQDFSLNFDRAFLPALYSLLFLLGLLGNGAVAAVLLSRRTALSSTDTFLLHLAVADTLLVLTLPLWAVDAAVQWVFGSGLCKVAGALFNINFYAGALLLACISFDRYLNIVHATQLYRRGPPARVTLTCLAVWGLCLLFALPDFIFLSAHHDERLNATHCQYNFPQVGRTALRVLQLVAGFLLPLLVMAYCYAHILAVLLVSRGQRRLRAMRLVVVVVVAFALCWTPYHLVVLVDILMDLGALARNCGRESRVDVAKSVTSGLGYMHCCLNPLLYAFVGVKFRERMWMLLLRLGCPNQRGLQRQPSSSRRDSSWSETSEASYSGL

Assay [2] addresses human CXCR3A (Homo sapiens (Human), UniProt P49682). Put plainly: FLIPR assay. It is filed as cell-based. The conditions noted are these: CHO-K1 cells expressing the human CXCR3A coupled to Galpha(16); CXCL10 agonist 20 nM; Fluo-4-AM fluorescence; mean values if determined several times. The gist of the method:
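CHO-K1 cells expressing CXCR3A coupled to Gα16 were loaded with Fluo-4-AM for 1 h in Hepes-buffered HBSS, pH 7.4, with 5 mM probenecid. Compound dilutions were added on the FLIPR, followed by CXCL10 (added as a 20 nM solution). Baseline-subtracted peak fluorescence was fitted to a single-site curve for IC50.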

human CXCR3A, sequence (P49682 whole entry): as above

`COC1CCN(Cc2ccc3nc(-c4nc(C(F)(F)F)sc4N4CCN(C(=O)Cn5cccn5)[C@H](C)C4)[nH]c3c2)C1` (stereo partly drawn) [Example 183, 1-((R)-4-{4-[6-(3-Methoxy-pyrrolidin-1-ylmethyl)-1H-benzoimidazol-2-yl]-2-trifluoromethyl-thiazol-5-yl}-2-methyl-piperazin-1-yl)-2-pyrazol-1-yl-ethanone]: the values for the IC50 in assay [1] and in assay [2] were 1440 nM and 15 nM, respectively.

On to `C[C@@H]1CN(c2sc(C(F)(F)F)nc2-c2nc3cccnc3[nH]2)CCN1C(=O)Cn1cnc2cccnc21` [Example 169, 2-Imidazo[4,5-b]pyridin-3-yl-1-{(R)-4-[4-(3H-imidazo[4,5-b]pyridin-2-yl)-2-trifluoromethyl-thiazol-5-yl]-2-methyl-piperazin-1-yl}-ethanone], for which the IC50 in assay [1] was 685 nM; in assay [2] it was 0.3 nM.

As for `CC(O)c1ccc2[nH]c(-c3nc(C(F)(F)F)sc3N3CCN(C(=O)Cn4cnc5cccnc54)[C@H](C)C3)nc2c1` (stereo partly drawn) [Example 166, 1-((R)-4-{4-[5-(1-Hydroxy-ethyl)-1H-benzoimidazol-2-yl]-2-trifluoromethyl-thiazol-5-yl}-2-methyl-piperazin-1-yl)-2-imidazo[4,5-b]pyridin-3-yl-ethanone], the results for the IC50 in assay [1] and in assay [2] were 111 nM and 1 nM, respectively.

Take `C[C@@H]1CN(c2sc(C(F)(F)F)nc2-c2nc3ccc(CN4CCCCC4)cc3[nH]2)CCN1C(=O)Cn1cccn1` [Example 181, 1-{(R)-2-Methyl-4-[4-(6-piperidin-1-ylmethyl-1H-benzoimidazol-2-yl)-2-trifluoromethyl-thiazol-5-yl]-piperazin-1-yl}-2-pyrazol-1-yl-ethanone]: the values for the IC50 in assay [1] and in assay [2] were 3090 nM and 58 nM, respectively.

`C[C@@H]1CN(c2scnc2-c2nc3ccccc3[nH]2)CCN1C(=O)Cn1cc(Cl)c2cccnc21` [Example 143, 1-{(R)-4-[4-(1H-Benzoimidazol-2-yl)-thiazol-5-yl]-2-methyl-piperazin-1-yl}-2-(3-chloro-pyrrolo[2,3-b]pyridin-1-yl)-ethanone]: the IC50 in assay [1] stood at 723 nM; in assay [2], 1 nM.

Turning to `CC(C)c1ccc2nc(-c3ncsc3N3CCN(C(=O)Cn4cnc5cccnc54)[C@H](C)C3)[nH]c2c1` [Example 88, 2-Imidazo[4,5-b]pyridin-3-yl-1-{(R)-4-[4-(6-isopropyl-1H-benzoimidazol-2-yl)-thiazol-5-yl]-2-methyl-piperazin-1-yl}-ethanone], the IC50 in assay [1] amounted to 126 nM; in assay [2], 1 nM.

Regarding `C[C@@H]1CN(c2scnc2-c2nc3ccccc3[nH]2)CCN1C(=O)Cn1cnc2cccnc21` [Example 17, 1-{(R)-4-[4-(1H-Benzoimidazol-2-yl)-thiazol-5-yl]-2-methyl-piperazin-1-yl}-2-imidazo[4,5-b]pyridin-3-yl-ethanone], the 50% inhibitory concentration (IC50) came to 447 nM in assay [1] and 6 nM in assay [2].

Turning to `C[C@@H]1CN(c2sc(C(F)(F)F)nc2-c2nc3ccccc3[nH]2)CCN1C(=O)Cc1cccc2cccnc12` [Example 190, 1-{(R)-4-[4-(1H-Benzoimidazol-2-yl)-2-trifluoromethyl-thiazol-5-yl]-2-methyl-piperazin-1-yl}-2-quinolin-8-yl-ethanone], the results for the IC50 in assay [1] and in assay [2] were 514 nM and 1 nM, respectively.

`O=C(Cn1cnc2cccnc21)N1CCN(c2sc(C(F)(F)F)nc2-c2nc3ccccc3[nH]2)CC1` [Example 226, 1-{4-[4-(1H-Benzoimidazol-2-yl)-2-trifluoromethyl-thiazol-5-yl]-piperazin-1-yl}-2-imidazo[4,5-b]pyridin-3-yl-ethanone]: the IC50 was determined as 363 nM in assay [1] and 1 nM in assay [2].

Turning to `Cn1c(=O)n(CC(=O)N2CCN(c3scnc3-c3nc4cc(C#N)ccc4[nH]3)CC2)c2ccccc21` [Example 75, 2-(5-{4-[2-(3-Methyl-2-oxo-2,3-dihydro-benzoimidazol-1-yl)-acetyl]-piperazin-1-yl}-thiazol-4-yl)-1H-benzoimidazole-5-carbonitrile], the IC50 in assay [1] is 721 nM; in assay [2], 15 nM.

Regarding `Cc1cc(C)nc(CC(=O)N2CCN(c3sc(C(F)(F)F)nc3-c3nc4ccccc4[nH]3)C[C@H]2C)c1` [Example 220], the figures for the IC50 in assay [1] and in assay [2] were 2620 nM and 19 nM, respectively.

For `Cc1cnn(CC(=O)N2CCN(c3sc(C(F)(F)F)nc3-c3nc4ccccc4[nH]3)C[C@H]2C)c1` [Example 191, 1-{(R)-4-[4-(1H-Benzoimidazol-2-yl)-2-trifluoromethyl-thiazol-5-yl]-2-methyl-piperazin-1-yl}-2-(4-methyl-pyrazol-1-yl)-ethanone], the IC50 in assay [1] was 470 nM; in assay [2] it was 1 nM.

Take `C[C@@H]1CN(c2sc(C(F)(F)F)nc2-c2nc3ccccc3[nH]2)CCN1C(=O)Cn1cccn1` [Example 173, 1-{(R)-4-[4-(1H-Benzoimidazol-2-yl)-2-trifluoromethyl-thiazol-5-yl]-2-methyl-piperazin-1-yl}-2-pyrazol-1-yl-ethanone]: the IC50 stood at 395 nM in assay [1] and 0.5 nM in assay [2].

`C[C@@H]1CN(c2sc(C(F)(F)F)nc2-c2nc3ccccc3[nH]2)CCN1C(=O)Cn1ncc2c1CCN(C)C2` [Example 216, 1-{(R)-4-[4-(1H-Benzoimidazol-2-yl)-2-trifluoromethyl-thiazol-5-yl]-2-methyl-piperazin-1-yl}-2-(5-methyl-4,5,6,7-tetrahydro-pyrazolo[4,3-c]pyridin-1-yl)-ethanone]: the IC50 was 90 nM in assay [1] and 2 nM in assay [2].

As to `C[C@@H]1CN(c2sc(C(F)(F)F)nc2-c2nc3ccccc3[nH]2)CCN1C(=O)CN1CCc2[nH]ncc2C1` [Example 217, 1-{(R)-4-[4-(1H-Benzoimidazol-2-yl)-2-trifluoromethyl-thiazol-5-yl]-2-methyl-piperazin-1-yl}-2-(1,4,6,7-tetrahydro-pyrazolo[4,3-c]pyridin-5-yl)-ethanone], the results for the concentration for half-maximal inhibition (IC50) in assay [1] and in assay [2] were 5010 nM and 21 nM, respectively.

On to `Cc1nc(C)n(CC(=O)N2CCN(c3sc(C(F)(F)F)nc3-c3nc4ccc(-n5cncn5)cc4[nH]3)C[C@H]2C)n1` [Example 234, 2-(3,5-Dimethyl-[1,2,4]triazol-1-yl)-1-{(R)-2-methyl-4-[4-(6-[1,2,4]triazol-1-yl-1H-benzoimidazol-2-yl)-2-trifluoromethyl-thiazol-5-yl]-piperazin-1-yl}-ethanone], for which the 50% inhibitory concentration (IC50) in assay [1] is 822 nM; in assay [2] it was 6 nM.

Regarding `O=C(Cn1ccc2cccnc21)N1CCCN(c2scnc2-c2nc3ccccc3[nH]2)CC1` [Example 44, 1-{4-[4-(1H-Benzoimidazol-2-yl)-thiazol-5-yl]-[1,4]diazepan-1-yl}-2-pyrrolo[2,3-b]pyridin-1-yl-ethanone], the figures for the IC50 in assay [1] and in assay [2] were 3900 nM and 3 nM, respectively.

As to `C[C@@H]1CN(c2scnc2-c2nc3ccc(CO)cc3[nH]2)CCN1C(=O)Cn1cnc2cccnc21` [Example 159, 1-{(R)-4-[4-(6-Hydroxymethyl-1H-benzoimidazol-2-yl)-thiazol-5-yl]-2-methyl-piperazin-1-yl}-2-imidazo[4,5-b]pyridin-3-yl-ethanone], the half-maximal inhibitory concentration (IC50) turned out to be 1540 nM in assay [1] and 1 nM in assay [2].

Take `C[C@@H]1CN(c2scnc2-c2nc3ccccc3[nH]2)CCN1C(=O)CN1C(=O)C(C)(C)c2ccccc21` [Example 151, 1-(2-{(R)-4-[4-(1H-Benzoimidazol-2-yl)-thiazol-5-yl]-2-methyl-piperazin-1-yl}-2-oxo-ethyl)-3,3-dimethyl-1,3-dihydro-indol-2-one]: the figures for the IC50 in assay [1] and in assay [2] were 547 nM and 4 nM, respectively.

As usually defined, the IC50 is the concentration at which inhibition is half-maximal.

For the origin of these results see patent publication US9266876B2 (Actelion Pharmaceuticals Ltd., priority 2012, dated 2016).
